In ChEMBL document CHEMBL4483862, “Open-source discovery of chemical leads for next-generation chemoprotective antimalarials” (2018):

System: Plasmodium berghei
Assay: Luciferase/luciferin-expressing antifolate-resistant parasites were used to infect a culture of HepG2 cells that were pre-incubated with compounds. Infected hepatocytes emit light due to the luciferase reaction. Assay results are presented as the percent inhibition of light emission compared to control. […]
Format: functional
Conditions: sporozoite; for IC90: read-out: LUCIFERASE INFECTION ASSAY - IC90
[1] = read-out: LUCIFERASE INFECTION ASSAY - IC50

FC(F)(F)c1ccnc(N2CCN(C(c3ccccc3)c3ccccc3)CC2)c1 showed an IC50 (PBLUC_HILL_SLOPE 1.54, PBLUC_R_SQUARED 0.0984, read-out: LUCIFERASE INFECTION ASSAY - IC50) of over 8.3 µM and an IC90 of over 8.3 µM.

For CCCCOCCCNC(=O)c1cc2ccccc2cc1OC, the IC50 (PBLUC_HILL_SLOPE 2.53, PBLUC_R_SQUARED 0.451, read-out: LUCIFERASE INFECTION ASSAY - IC50) was 6.56 µM and the IC90 was over 10 µM.

For COc1ccc(OC)c(CCNc2nc3cnc(-c4cc(OC)c(OC)c(OC)c4)cc3n2C)c1, the IC50 (PBLUC_HILL_SLOPE 3.05, PBLUC_R_SQUARED 0.174, read-out: LUCIFERASE INFECTION ASSAY - IC50) was 7.61 µM and the IC90 was over 10 µM.

With CC(Sc1nnc(/C=C/c2ccc(F)cc2)[nH]1)C(=O)N(Cc1ccccc1)Cc1ccccc1 (stereo not given) the IC50 (HEPG2TOX_HILL_SLOPE 2.54, HEPG2TOX_R_SQUARED 0.989, PBLUC_HILL_SLOPE 16.4, PBLUC_R_SQUARED 0.588, read-out: LUCIFERASE INFECTION ASSAY - IC50) was 3.27 µM and the IC90 was 3.74 µM.

CCN(Cc1ccccc1)c1ccc(/C=N/N=C(N)N)cc1 gave an IC50 (HEPG2TOX_HILL_SLOPE 8.25, HEPG2TOX_R_SQUARED 0.944, PBLUC_HILL_SLOPE 2.7, PBLUC_R_SQUARED 0.838, read-out: LUCIFERASE INFECTION ASSAY - IC50) of 2.27 µM and an IC90 of 5.13 µM.

With Cc1ccc(CCC2CCN(C(C)C(=O)Nc3cccc(S(N)(=O)=O)c3)CC2)cc1 (stereo not given) the IC50 [1] was 6.94 µM and the IC90 was over 10 µM.

Work on CCC(=O)c1cc(Br)ccc1OC(=O)Cc1coc2cc(C)c(C)cc12 yielded an IC50 (FFLUC_HILL_SLOPE 11.7, FFLUC_R_SQUARED 0.164, HEPG2TOX_HILL_SLOPE 5.81, HEPG2TOX_R_SQUARED 0.234, PBLUC_HILL_SLOPE 5.23, PBLUC_R_SQUARED 0.568, read-out: LUCIFERASE INFECTION ASSAY - IC50) of 5.48 µM and an IC90 of 8.33 µM.

For CC(=O)c1ccc(NC(=O)c2cc(-c3cc(C)ccc3C)nc3ccccc23)cc1, the IC50 (PBLUC_HILL_SLOPE 2.38, PBLUC_R_SQUARED 0.305, read-out: LUCIFERASE INFECTION ASSAY - IC50) was 4.56 µM and the IC90 was over 8.37 µM.

Work on Cc1ccccc1OC1=C(Cl)C(=O)c2ccccc2C1=O yielded an IC50 (FFLUC_HILL_SLOPE 16.7, FFLUC_R_SQUARED 0.318, HEPG2TOX_HILL_SLOPE 9.14, HEPG2TOX_R_SQUARED 0.751, PBLUC_HILL_SLOPE 4.24, PBLUC_R_SQUARED 0.127, read-out: LUCIFERASE INFECTION ASSAY - IC50) of 5.87 µM and an IC90 of 9.86 µM.

CCOC(=O)c1csc(-c2sc(SC)c(C(C)=O)c2C)n1 showed an IC50 [1] of over 9.66 µM and an IC90 of over 9.66 µM.

Nc1c(C(=O)CN2CCN(C(c3ccc(F)cc3)c3ccc(F)cc3)CC2)c(=O)[nH]c(=O)n1Cc1ccccc1 was tested, and the IC50 [1] was over 10 µM and the IC90 was over 10 µM.

With O=C(NCc1ccco1)/C(=C/c1cccc(C(F)(F)F)c1)c1nc2ccccc2[nH]1 the IC50 (FFLUC_HILL_SLOPE 10.6, FFLUC_R_SQUARED 0.24, HEPG2TOX_HILL_SLOPE 4.32, HEPG2TOX_R_SQUARED 0.946, PBLUC_HILL_SLOPE 6.31, PBLUC_R_SQUARED 0.466, read-out: LUCIFERASE INFECTION ASSAY - IC50) was 5.3 µM and the IC90 was 7.5 µM.

O=C(Nc1nc2ccccn2c1C(=O)NC1CCCCC1)c1ccc(F)c(F)c1 gave an IC50 (PBLUC_HILL_SLOPE 13.4, PBLUC_R_SQUARED 0.0564, read-out: LUCIFERASE INFECTION ASSAY - IC50) of 7.37 µM and an IC90 of over 8.28 µM.

In the case of O=C(NC(c1ccccc1O)C(NC(=O)c1ccccc1)c1ccccc1O)c1ccccc1 (stereo not given), the IC50 [1] is reported as over 7.29 µM and the IC90 is reported as over 7.29 µM.

Work on CC(=O)c1ccc(NC(=O)Cn2nc(-c3ccco3)ccc2=O)cc1 yielded an IC50 (FFLUC_HILL_SLOPE 14.3, FFLUC_R_SQUARED 0.29, read-out: LUCIFERASE INFECTION ASSAY - IC50) of over 9.78 µM and an IC90 of over 9.78 µM.

Cc1cc(NC(=O)CNC(c2ccc(C3CCCCC3)cc2)C(C)C)n(C2CCS(=O)(=O)C2)n1 (stereo not given) showed an IC50 (PBLUC_HILL_SLOPE 35.5, PBLUC_R_SQUARED 0.454, read-out: LUCIFERASE INFECTION ASSAY - IC50) of 9.31 µM and an IC90 of 9.9 µM.

CC(C)[C@H](NC(=O)c1ccc(C(C)(C)C)cc1)C(=O)Nc1nc2ccccc2[nH]1 was tested, and the IC50 [1] was over 10 µM and the IC90 was over 10 µM.

CS(=O)(=O)Nc1cccc(-c2cn3c(-c4cccs4)cnc3cn2)c1 was tested, and the IC50 (HEPG2TOX_HILL_SLOPE 4.93, HEPG2TOX_R_SQUARED 0.12, read-out: LUCIFERASE INFECTION ASSAY - IC50) was over 8.91 µM and the IC90 was over 8.91 µM.

For CC(C)c1ccc(-n2c(Sc3ccc(C(F)(F)F)cc3[N+](=O)[O-])nnc2-c2ccc(C(C)(C)C)cc2)cc1, the IC50 (PBLUC_HILL_SLOPE 12.8, PBLUC_R_SQUARED 0.26, read-out: LUCIFERASE INFECTION ASSAY - IC50) was 5.26 µM and the IC90 was over 6.1 µM.

Work on CC(C)=CC(=O)Nc1scc(-c2ccccc2)c1C(=O)OCC(=O)N(CCC#N)c1cc(C)cc(C)c1 yielded an IC50 [1] of over 10 µM and an IC90 of over 10 µM.

For c1ccc(-c2cn3nc(NCc4ccccc4CN4CCOCC4)sc3n2)cc1, the IC50 [1] was 1.28 µM and the IC90 was over 10 µM.

For CN(C)c1ccc(CNc2ncnc3ccccc23)cc1, the IC50 (HEPG2TOX_HILL_SLOPE 1.21, HEPG2TOX_R_SQUARED 0.974, PBLUC_HILL_SLOPE 1.4, PBLUC_R_SQUARED 0.594, read-out: LUCIFERASE INFECTION ASSAY - IC50) was 4.35 µM and the IC90 was over 10 µM.

For OCc1ccc(-c2cnc3ccc(-c4cccc(Cl)c4)nn23)cc1, the IC50 (FFLUC_HILL_SLOPE 12.3, FFLUC_R_SQUARED 0.916, HEPG2TOX_HILL_SLOPE 9.11, HEPG2TOX_R_SQUARED 0.904, PBLUC_HILL_SLOPE 1.55, PBLUC_R_SQUARED 0.705, read-out: LUCIFERASE INFECTION ASSAY - IC50) was 0.798 µM and the IC90 was 3.31 µM.

With CCCCNC(=O)c1c(NC(=O)c2c(F)ccc(F)c2F)nc2ccccn12 the IC50 [1] was over 8.45 µM and the IC90 was over 8.45 µM.

For O=[N+]([O-])c1ccc(SCCOS(=O)(=O)c2cccc(C(F)(F)F)c2)c2nonc12, the IC50 [1] was over 7.34 µM and the IC90 was over 7.34 µM.

Work on c1ccc(-c2csc3nc(-c4ccccn4)nc(NC4CC4)c23)cc1 yielded an IC50 [1] of 2.32 µM and an IC90 of 4.93 µM.

In the case of COCCOc1ccc(C(F)(F)F)cc1NC(=O)COC(=O)c1ccc2[nH]c3c(c2c1)CCCC3, the IC50 (FFLUC_HILL_SLOPE 10.4, FFLUC_R_SQUARED 0.848, HEPG2TOX_HILL_SLOPE 1.66, HEPG2TOX_R_SQUARED 0.868, PBLUC_HILL_SLOPE 2.48, PBLUC_R_SQUARED 0.755, read-out: LUCIFERASE INFECTION ASSAY - IC50) is reported as 4.17 µM and the IC90 is reported as over 10 µM.

For COc1ccc(-c2cnc3cnc(-c4ccc(O)cc4)cn23)cc1, the IC50 (HEPG2TOX_HILL_SLOPE 3.68, HEPG2TOX_R_SQUARED 0.904, PBLUC_HILL_SLOPE 3.01, PBLUC_R_SQUARED 0.439, read-out: LUCIFERASE INFECTION ASSAY - IC50) was 5.92 µM and the IC90 was over 10.4 µM.

For O=C(Nn1cn[nH]c1=S)c1ccc2ccccc2n1, the IC50 (HEPG2TOX_HILL_SLOPE 3, HEPG2TOX_R_SQUARED 0.551, PBLUC_HILL_SLOPE 3.2, PBLUC_R_SQUARED 0.429, read-out: LUCIFERASE INFECTION ASSAY - IC50) was 5.8 µM and the IC90 was over 10 µM.

O=S(=O)(c1ccc(Cl)c(NC(=S)N/N=C/c2ccc3ncccc3c2)c1)N1CCOCC1 was tested, and the IC50 (PBLUC_HILL_SLOPE 2.75, PBLUC_R_SQUARED 0.637, read-out: LUCIFERASE INFECTION ASSAY - IC50) was 5.55 µM and the IC90 was over 10 µM.

Molecule O=C(Nc1nc2ccc(SC(F)F)cc2s1)c1ccc(Cl)nc1 has an IC50 (HEPG2TOX_HILL_SLOPE 12.1, HEPG2TOX_R_SQUARED 0.0104, read-out: LUCIFERASE INFECTION ASSAY - IC50) of over 10 µM and an IC90 of over 10 µM.

c1cncc(-c2cnc3ccc(-c4ccoc4)nn23)c1 was tested, and the IC50 (HEPG2TOX_HILL_SLOPE 0.706, HEPG2TOX_R_SQUARED 0.847, PBLUC_HILL_SLOPE 1.15, PBLUC_R_SQUARED 0.722, read-out: LUCIFERASE INFECTION ASSAY - IC50) was 1.63 µM and the IC90 was over 10 µM.

O=C1NC2(CCCc3ccccc32)C(=O)N1Cc1cc2ccccc2nc1Cl (stereo not given) gave an IC50 (FFLUC_HILL_SLOPE 2.55, FFLUC_R_SQUARED 0.444, HEPG2TOX_HILL_SLOPE 2.36, HEPG2TOX_R_SQUARED 0.953, PBLUC_HILL_SLOPE 3.3, PBLUC_R_SQUARED 0.364, read-out: LUCIFERASE INFECTION ASSAY - IC50) of 5.08 µM and an IC90 of 9.89 µM.

In the case of Cc1cc(-c2ccccc2)nc(SCc2ccc(C#N)cc2)n1, the IC50 (HEPG2TOX_HILL_SLOPE 7.96, HEPG2TOX_R_SQUARED 0.286, PBLUC_HILL_SLOPE 151, PBLUC_R_SQUARED 0.106, read-out: LUCIFERASE INFECTION ASSAY - IC50) is reported as 5.87 µM and the IC90 is reported as 5.95 µM.

Work on O=C1/C(=C/c2ccc(-n3nncc3C34CC5CC(CC(C5)C3)C4)cc2)CCC/C1=C\c1ccc(-n2nncc2C23CC4CC(CC(C4)C2)C3)cc1 yielded an IC50 (FFLUC_HILL_SLOPE 2.2, FFLUC_R_SQUARED 0.872, HEPG2TOX_HILL_SLOPE 3.7, HEPG2TOX_R_SQUARED 0.967, PBLUC_HILL_SLOPE 5.71, PBLUC_R_SQUARED 0.867, read-out: LUCIFERASE INFECTION ASSAY - IC50) of 2.87 µM and an IC90 of 4.22 µM.

Work on COC(=O)c1ccc(OC(=O)c2cc3c(s2)CCC3)cc1 yielded an IC50 (FFLUC_HILL_SLOPE 8.2, FFLUC_R_SQUARED 0.68, read-out: LUCIFERASE INFECTION ASSAY - IC50) of over 10 µM and an IC90 of over 10 µM.

Work on O=C(O)CNC(=O)/C=C/c1ccccc1 [CINNAMOYLGLYCINE] yielded an IC50 [1] of over 10 µM and an IC90 of over 10 µM.

Molecule OCc1cccc(Nc2nc(-c3ccsc3)nc3ccccc23)c1 has an IC50 [1] of over 10 µM and an IC90 of over 10 µM.

In the case of CN(C)S(=O)(=O)c1cccc(C(=O)N(Cc2ccccc2)CC(O)COC(c2ccccc2)c2ccccc2)c1 (stereo not given), the IC50 [1] is reported as over 10 µM and the IC90 is reported as over 10 µM.

For O=C(Nc1ccc(Cl)cc1)Nc1cc(-c2cc(-c3ccccc3)c(C(F)(F)F)s2)n[nH]1, the IC50 (PBLUC_HILL_SLOPE 12.1, PBLUC_R_SQUARED 0.235, read-out: LUCIFERASE INFECTION ASSAY - IC50) was 6.86 µM and the IC90 was over 7.13 µM.
